Biological target: KRAS G12C and cRAF (Ras-binding domain) interaction (Homo sapiens (Human), UniProt P01116, C118S/C51S/C80L/G12C)
Experiment: Inhibition of KRAS G12C and cRAF binding (AlphaScreen)
Settings: GMPPNP-loaded KRAS G12C, 19-20 hours incubation with compound; read-out: IC50 (Inhibition of KRAS G12C and cRAF Binding)
Outline: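 Compounds (DMSO) preincubated 19-20 h at room temperature, then RBD with streptavidin donor and glutathione acceptor beads added in 25 mM Hepes pH 7.4, 150 mM NaCl, 5 mM MgCl2, 0.01% Triton X-100, 2% DMSO for 60-90 min. Emission 570 nm (excitation 680 nm); IC50 by 4-parameter fit. Counter-screen used biotin-AviTag-GST instead of RBD.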

Chain of KRAS G12C and cRAF (Ras-binding domain) interaction (P01116 other isoform, or with tags, fused parts or gaps G12C/C51S/C80L/C118S): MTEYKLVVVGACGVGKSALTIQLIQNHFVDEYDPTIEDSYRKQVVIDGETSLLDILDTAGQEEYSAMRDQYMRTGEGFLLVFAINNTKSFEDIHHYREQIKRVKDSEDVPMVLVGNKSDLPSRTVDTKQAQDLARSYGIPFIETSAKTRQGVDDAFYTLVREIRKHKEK

IC50 [nM]	Structure (SMILES)
100 to 500	C=CS(=O)(=O)[C@H]1C[C@H](N(C)c2nc(OC[C@@H]3CCCN3C)nc3c2CCN(c2cccc4cccc(Cl)c24)C3)C1 [Example 48, 7-(8-chloronaphthalen-1-yl)-N-methyl-2-(((S)-1-methylpyrrolidin-2-yl)methoxy)-N-((1r,3S)-3-(vinylsulfonyl)cyclobutyl)-5,6,7,8-tetrahydropyrido[3,4-d]pyrimidin-4-amine]
< 10	C=CS(=O)(=O)CCN(C)c1nc(OCC23CCCN2CCC3)nc2c1CCN(c1cccc3cccc(Cl)c13)C2 [Example 49, 7-(8-chloronaphthalen-1-yl)-2-((hexahydro-1H-pyrrolizin-7a-yl)methoxy)-N-methyl-N-(2-(vinylsulfonyl)ethyl)-5,6,7,8-tetrahydropyrido[3,4-d]pyrimidin-4-amine]
> 500	C=CS(=O)(=O)C1CN(c2nc(OC[C@@H]3CCCN3C)nc3c2CCN(c2cccc4cccc(Cl)c24)C3)C1 [Example 50, (S)-7-(8-chloronaphthalen-1-yl)-2-((1-methylpyrrolidin-2-yl)methoxy)-4-(3-(vinylsulfonyl)azetidin-1-yl)-5,6,7,8-tetrahydropyrido[3,4-d]pyrimidine]
> 500	C=CS(=O)(=O)C1CCN(c2nc(OC[C@@H]3CCCN3C)nc3c2CCN(c2cccc4cccc(Cl)c24)C3)C1 (stereo partly drawn) [Example 51, 7-(8-chloronaphthalen-1-yl)-2-(((S)-1-methylpyrrolidin-2-yl)methoxy)-4-(3-(vinylsulfonyl)pyrrolidin-1-yl)-5,6,7,8-tetrahydropyrido[3,4-d]pyrimidine]
10 to 100	CN(C)C/C=C/S(=O)(=O)CCN(C)c1nc(OC[C@@H]2CCCN2C)nc2c1CCN(c1cccc3cccc(Cl)c13)C2 [Example 52, (S,E)-7-(8-chloronaphthalen-1-yl)-N-(2-((3-(dimethylamino)prop-1-en-1-yl)sulfonyl)ethyl)-N-methyl-2-((1-methylpyrrolidin-2-yl)methoxy)-5,6,7,8-tetrahydropyrido[3,4-d]pyrimidin-4-amine]
100 to 500	CN(CCS(=O)(=O)/C=C/CN1CC(F)C1)c1nc(OC[C@@H]2CCCN2C)nc2c1CCN(c1cccc3cccc(Cl)c13)C2 [Example 53, 7-(8-chloro-1-naphthyl)-N-[2-[(E)-3-(3-fluoroazetidin-1-yl)prop-1-enyl]sulfonylethyl]-N-methyl-2-[[(2S)-1-methylpyrrolidin-2-yl]methoxy]-6,8-dihydro-5H-pyrido[3,4-d]pyrimidin-4-amine]
100 to 500	C/C=C/S(=O)(=O)CCN(C)c1nc(OCC23CCCN2CCC3)nc2c1CCN(c1cccc3cccc(Cl)c13)C2 [Example 54, (E)-7-(8-chloronaphthalen-1-yl)-2-((hexahydro-1H-pyrrolizin-7a-yl)methoxy)-N-methyl-N-(2-(prop-1-en-1-ylsulfonyl)ethyl)-5,6,7,8-tetrahydropyrido[3,4-d]pyrimidin-4-amine]
< 10	CCN(CC)C/C=C/S(=O)(=O)CCN(C)c1nc(OCC23CCCN2CCC3)nc2c1CCN(c1cccc3cccc(Cl)c13)C2 [Example 55, (E)-7-(8-chloronaphthalen-1-yl)-N-(2-((3-(diethylamino)prop-1-en-1-yl)sulfonyl)ethyl)-2-((hexahydro-1H-pyrrolizin-7a-yl)methoxy)-N-methyl-5,6,7,8-tetrahydropyrido[3,4-d]pyrimidin-4-amine]
10 to 100	CN(c1nc(OC[C@@]23CCCN2C[C@H](F)C3)nc2c(F)c(-c3cccc4cccc(Cl)c34)ncc12)[C@H]1CN(C(=O)/C=C/c2nc(C(C)(C)O)no2)C[C@@H]1F [Example 56, (E)-1-((3S,4S)-3-((7-(8-chloronaphthalen-1-yl)-8-fluoro-2-(((2R,7aS)-2-fluorohexahydro-1H-pyrrolizin-7a-yl)methoxy)pyrido[4,3-d]pyrimidin-4-yl)(methyl)amino)-4-fluoropyrrolidin-1-yl)-3-(3-(2-hydroxypropan-2-yl)-1,2,4-oxadiazol-5-yl)prop-2-en-1-one]
100 to 500	C=CC(=O)N1C[C@H](O)[C@@H](N(C)c2nc(OC[C@@]34CCCN3C[C@H](F)C4)nc3c(F)c(-c4cccc5cccc(Cl)c45)ncc23)C1 [Example 57, 1-((3S,4S)-3-((7-(8-chloronaphthalen-1-yl)-8-fluoro-2-(((2R,7aS)-2-fluorohexahydro-1H-pyrrolizin-7a-yl)methoxy)pyrido[4,3-d]pyrimidin-4-yl)(methyl)amino)-4-hydroxypyrrolidin-1-yl)prop-2-en-1-one]
10 to 100	CN(c1nc(OC[C@@]23CCCN2C[C@H](F)C3)nc2c(F)c(-c3cccc4cccc(Cl)c34)ncc12)[C@@H]1CCN(C(=O)C#CC2CCNC2)C1 (stereo partly drawn) [Example 58, 1-((R)-3-((7-(8-chloronaphthalen-1-yl)-8-fluoro-2-(((2R,7aS)-2-fluorohexahydro-1H-pyrrolizin-7a-yl)methoxy)pyrido[4,3-d]pyrimidin-4-yl)(methyl)amino)pyrrolidin-1-yl)-3-(pyrrolidin-3-yl)prop-2-yn-1-one]
< 10	CN(c1nc(OC[C@@]23CCCN2C[C@H](F)C3)nc2c(F)c(-c3cccc4cccc(Cl)c34)ncc12)[C@@H]1CCN(C(=O)C#CC2CCCN2)C1 (stereo partly drawn) [Example 59, 1-((R)-3-((7-(8-chloronaphthalen-1-yl)-8-fluoro-2-(((2R,7aS)-2-fluorotetrahydro-1H-pyrrolizin-7a(5H)-yl)methoxy)pyrido[4,3-d]pyrimidin-4-yl)(methyl)amino)pyrrolidin-1-yl)-3-(pyrrolidin-2-yl)prop-2-yn-1-one]
100 to 500	C=CC(=O)N1CC(F)(CN(C)c2nc(OC[C@@]34CCCN3C[C@H](F)C4)nc3c(F)c(-c4cccc5ccc(F)c(Cl)c45)ncc23)C1 [Example 60, 1-(3-(((7-(8-chloro-7-fluoronaphthalen-1-yl)-8-fluoro-2-(((2R,7aS)-2-fluorotetrahydro-1H-pyrrolizin-7a(5H)-yl)methoxy)pyrido[4,3-d]pyrimidin-4-yl)(methyl)amino)methyl)-3-fluoroazetidin-1-yl)prop-2-en-1-one]
10 to 100	CN(c1nc(OCC23CCCN2CCC3)nc2c(F)c(-c3cccc4ccc(F)c(Cl)c34)ncc12)[C@@H]1CCN(C(=O)/C=C/c2nc(C(C)(C)O)no2)C1 [Example 61, (R,E)-1-(3-((7-(8-chloro-7-fluoronaphthalen-1-yl)-8-fluoro-2-((hexahydro-1H-pyrrolizin-7a-yl)methoxy)pyrido[4,3-d]pyrimidin-4-yl)(methyl)amino)pyrrolidin-1-yl)-3-(3-(2-hydroxypropan-2-yl)-1,2,4-oxadiazol-5-yl)prop-2-en-1-one]
10 to 100	Cc1nccc(/C=C/C(=O)N2CC(CN(C)c3nc(OC[C@@]45CCCN4C[C@H](F)C5)nc4c(F)c(-c5cccc6cccc(Cl)c56)ncc34)C2)n1 [Example 62, (E)-1-(3-(((7-(8-chloronaphthalen-1-yl)-8-fluoro-2-(((2R,7aS)-2-fluorotetrahydro-1H-pyrrolizin-7a(5H)-yl)methoxy)pyrido[4,3-d]pyrimidin-4-yl)(methyl)amino)methyl)azetidin-1-yl)-3-(2-methylpyrimidin-4-yl)prop-2-en-1-one]
10 to 100	CN(CC1CN(C(=O)/C=C/c2ccncn2)C1)c1nc(OC[C@@]23CCCN2C[C@H](F)C3)nc2c(F)c(-c3cccc4cccc(Cl)c34)ncc12 [Example 63, (E)-1-(3-(((7-(8-chloronaphthalen-1-yl)-8-fluoro-2-(((2R,7aS)-2-fluorotetrahydro-1H-pyrrolizin-7a(5H)-yl)methoxy)pyrido[4,3-d]pyrimidin-4-yl)(methyl)amino)methyl)azetidin-1-yl)-3-(pyrimidin-4-yl)prop-2-en-1-one]
< 10	CN(c1nc(OC[C@@]23CCCN2C[C@H](F)C3)nc2c(F)c(-c3cccc4cccc(Cl)c34)ncc12)[C@@H]1CCN(C(=O)C#CC2CNCCO2)C1 (stereo partly drawn) [Example 64, 1-((R)-3-((7-(8-chloronaphthalen-1-yl)-8-fluoro-2-(((2R,7aS)-2-fluorohexahydro-1H-pyrrolizin-7a-yl)methoxy)pyrido[4,3-d]pyrimidin-4-yl)(methyl)amino)pyrrolidin-1-yl)-3-(morpholin-2-yl)prop-2-yn-1-one]
10 to 100	CN1CCC(C#CC(=O)N2CC[C@@H](N(C)c3nc(OC[C@@]45CCCN4C[C@H](F)C5)nc4c(F)c(-c5cccc6cccc(Cl)c56)ncc34)C2)C1 (stereo partly drawn) [Example 65, 1-((R)-3-((7-(8-chloronaphthalen-1-yl)-8-fluoro-2-(((2R,7aS)-2-fluorohexahydro-1H-pyrrolizin-7a-yl)methoxy)pyrido[4,3-d]pyrimidin-4-yl)(methyl)amino)pyrrolidin-1-yl)-3-(1-methylpyrrolidin-3-yl)prop-2-yn-1-one]
10 to 100	CN1CCCC1C#CC(=O)N1CC[C@@H](N(C)c2nc(OC[C@@]34CCCN3C[C@H](F)C4)nc3c(F)c(-c4cccc5cccc(Cl)c45)ncc23)C1 (stereo partly drawn) [Example 66, 1-((R)-3-((7-(8-chloronaphthalen-1-yl)-8-fluoro-2-(((2R,7aS)-2-fluorotetrahydro-1H-pyrrolizin-7a(5H)-yl)methoxy)pyrido[4,3-d]pyrimidin-4-yl)(methyl)amino)pyrrolidin-1-yl)-3-(1-methylpyrrolidin-2-yl)prop-2-yn-1-one]
10 to 100	CN1CC(C#CC(=O)N2CC[C@@H](N(C)c3nc(OC[C@@]45CCCN4C[C@H](F)C5)nc4c(F)c(-c5cccc6cccc(Cl)c56)ncc34)C2)C1 [Example 67, 1-((R)-3-((7-(8-chloronaphthalen-1-yl)-8-fluoro-2-(((2R,7aS)-2-fluorohexahydro-1H-pyrrolizin-7a-yl)methoxy)pyrido[4,3-d]pyrimidin-4-yl)(methyl)amino)pyrrolidin-1-yl)-3-(1-methylazetidin-3-yl)prop-2-yn-1-one]

Source: patent US20250019387A1 (Frontier Medicines Corporation, priority 0001, published 2025)
